Consider one molecule from patent US20230181503A1, “FEED ADDITIVE” (LUCTA, S.A., priority 2020, published 2023).

In the experiment the test system is IPEC-J2 cells (pig enterocytes). Nature of the experiment: Trans-epithelial electrical resistance (TEER) of IPEC-J2 monolayer. The conditions noted are these: formulations 50 μg/mL, genistein 50 μM. Format: cell-based. The procedure: Formulation C with HT:MA:OA at weight ratio 11:50:23 (50 μg/mL) and formulation D with HT:MA:OA at weight ratio 12:50:15 (50 μg/mL) were also tested on a cell line of pig enterocytes (IPEC-J2), at different conditions. IPEC-J2 cells were seeded into a permeable transwells membrane insert (6.5 mm diameter, 0.4 μm pore size, 0.33 cm2, polyester, Costar) at 1×10^5 cells/cm^2 to form a confluent monolayer within 4 days. Medium was replaced 48 h post-seeded and products were added on the apical side. On day 3 post-seeded, cells were treated with LPS (50 ng/mL) on the apical side and 24 h post-LPS stimulation epithelial cell integrity was assessed through the measurement of trans-epithelial electrical resistance (TEER) using a Millicell ERS-2 Voltohmmeter (Millipore, Billerica, Mass.). For each condition, triplicates were carried out in three independent experiments. At the end of incubation apical and basal media were eliminated and RNAlater solution (1 mL/well) was added to the cells for RNA stabilization and storage. Total RNA was extracted using RNA Mini Kit columns from Ambion (Life technologies, Carlsbad, Calif.) and stored at −80° C. for subsequent retrotranscription and quantitative RT-PCR. The extraction of total RNA was carried out using PureLink™ RNA Mini Kit according to the manufacturer's protocol. […]

For `O=c1c(-c2ccc(O)cc2)coc2cc(O)cc(O)c12` [Genistein], the TEER relative to DMSO control amounted to 107% (IPEC-J2, + LPS 50 ng/mL, 24 h post-LPS, LPS alone = 61.7) and 129% (IPEC-J2, without LPS, Control (DMSO) = 100).
